Read-outs that look alike come from different tables or passages of the source.
What was measured:
[1] = system: MDA-MB-231 cancer cells; assay: Sulforhodamine B (SRB) growth inhibition assay; type: cell-based, human; settings: for GI50: Homo sapiens, MDA-MB-231, SRB assay, 24 h treatment, mean of triplicate, SD <10%; for anti-proliferative activity / cytotoxicity in words: MDA-MB-231, concentrations ≤50 μM
Method: (§1) Various compounds were tested to evaluate the dose response curve for effect on MCF-7 cancer cells and MDA-MB-231 cancer cells. MCF-7 and MDA-MB-231 cells were cultured in 10% Minimum Essential Medium Eagle (MEME) supplemented with Earle's Balanced Salt Solution (EBSS), Non-essential Amino acids (NEAA), Sodium pyruvate, Pen/Strep, L-glutamine and Fetal Bovine Serum (FBS) at 37° C. in 5% CO2.
(§2) Sulforhodamine B (SRB) Assay: A stock solution of compounds was prepared at 50 mM in 100% DMSO. For cells preparation, a flask of 75 cm^2 or 25 cm^2 were used for 2.6×10^5 cells or 1.44×10^5 cells respectively with an 80-90% of confluence. Cells were washed with PBS and trypsinized. The concentration of cells was determined using a 1:2 dilutions with Trypan Blue and a hemocytometer. After cell count, the concentration was adjusted to have a 1.9×10^4 cells/well. Approximately […] of cells suspension, compounds, control positive and control negative were added in triplicates to a 96 well plate. Positive controls used were ellipticine, doxorubicin, and/or vincristine, and the negative control was DMSO 0.1%. All compounds at 50, 25, 12.5, 6.3, and 1.6 μM were incubated with cells at 37° C. for 24 hrs. For fixation, cold TCA 50% was used and incubated at 4° C. for 1 hr. Wells were washed and dried prior to tincture with 100 μL of SRB 0.4%. To remove excess of SRB, acetic acid was used. For analysis, TRIS-BASE Solution (pH=10.5) was used and shacked prior to reading using an ELISA reader at 510 nm and the software SoftMax Pro 4.8.
(§3) For each compound, 50% growth inhibition (GI50) was calculated from Sigmoidal dose-response curves (variable-slope) that were generated with data obtained from experiments carried out in triplicates (GI50 values were generated with GraphPad Prism V. 6.02, GraphPad Software, Inc.). The results are presented in FIGS. 4A-4B (MCF-7 cancer cells) and FIGS. 5A-5B (MDA-MB-231 cancer cells).

[2] = system: MCF-7 cancer cells; assay: Sulforhodamine B (SRB) growth inhibition assay; type: cell-based; settings: Homo sapiens, MCF7, 24 h treatment, mean of triplicate, SD <10%
Method: as §1, §2, §3

[3] = system: MDA-MB-231 breast cancer cells; assay: Wound healing assay (scratch method), cell migration; type: cell-based, human; settings: Homo sapiens, MDA-MB-231; for activity at 10 µM: percent relative migration at 10 μM after 24 h, relative to control; for inhibition at 10 µM: read-out: anti-migratory activity (inhibition of migration)
Method: The experimental data of anti-migratory activities for compounds 3a-d and 4a-f were obtained using MDA-MB-231 breast cancer cells. For the migration assay, a wound-healing assay (scratch-wound assay) was utilized in the presence of vehicle (0.02% DMSO) or compounds at […].
Prior to assays, cells were grown until 80-90% confluence was observed. A 75 cm2 flask was used for 2.6×10^5 cells/mL in 10 mL and for a 25 cm2 flask 1.44×10^5 cells/mL in 5 mL. The cells were washed with PBS to remove all traces of FBS. 2 mL was added for a 25 cm2 flasks or 4 mL for a 75 cm2 flasks trypsin, and incubated 5-10 min at 37° C. At the end of the incubation time, cells were re-suspended and counted with hemocytometer using 1:2 dilutions with Trypan blue. Subsequently, cell viability was calculated. In a 12 multiwell plate, the plastic pattern was used to draw a fine space with a fine marker on the bottom of the plate. Cells were seeded at 1.5-2.2×10^5 cells/mL in 1 mL and incubated for 24 h. Cells were then rinsed with PBS and incubated in starving media (0.5% FBS) overnight. All controls and drugs were tested in triplicate. The negative control for each drug was prepared according to the drug's DMSO concentration.
Drugs were diluted and the final concentration at each well […]. The wound was made using a sterile pipette tip of […]. Cells were then rinsed very gently with media without FBS and media with negative controls was added. After a 24 h incubation, the gap distance was evaluated using the software Lumera Infinity Analyze 6.4.0. Pictures were taken at 0, 8, 12 and 24 h using a 10× objective. The percentage of migration was calculated using the following formula: 100−[(X0/X0)]*100 for time 0 h measurements 100−[(X24/X0)]*100 for time 24 h measurements
The experimental data of anti-migratory activities for compounds 3a-d and 4a-f were obtained using MDA-MB-231 breast cancer cells, and results are summarized in Table 1. For the migration assay, we used a wound-healing assay (scratch-wound assay)^22 in the presence of vehicle (0.02% DMSO) or compounds at 10 μM (FIG. 6). […] However, compounds 3a, 3c, and 4a-f inhibited migration in the range of 1-9%.
An additional example of a compounds with modification in building block C was synthesized via a different procedure as represented in Scheme 2B (see FIG. 11B). The compounds that were synthesized were tested for their biological activity by determination of their cytotoxicity in MDA-MB-231 breast cancer cell lines as shown in Table 5. The cytotoxicity's are expressed as IC50, which indicates the concentration at which 50% of the cell growth is inhibited. Furthermore, the inhibition of cell migration was tested at a concentration of 0.2×IC50, or, when the IC50 was >50 μM at a concentration of 10 μM. For comparison, Table 5 also includes the Lipinski and drug-likeness parameters as calculated via the MolSoft platform.
Migration assays were performed via the Scratch Method as described previously.

Structure (SMILES) | GI50 [1] | GI50 [2] | activity at 10 µM [3] | inhibition at 10 µM [3] | inhibition at 10 µM ([3]; at 10 μM, 24 h) | anti-proliferative activity / cytotoxicity in words [1] | anti-proliferative activity in words ([1]; MDA-MB-231 at <50 pM as printed)
CCn1c2ccccc2c2cc(NC(=O)c3cccnc3N3CCN(c4ccccc4)CC3)ccc21 [Compound 3c, N-(9-ethyl-9H-carbazol-3-yl)-2-(4-phenylpiperazin-1-yl)nicotinamide] | > 50 µM | > 50 µM | 99 ± 1.89% | – | – | – | –
CCn1c2ccccc2c2cc(NC(=O)c3cccnc3N3CCN(C(C)=O)CC3)ccc21 [Compound 3a, 2-(4-acetylpiperazin-1-yl)-N-(9-ethyl-9H-carbazol-3-yl)nicotinamide] | > 50 µM | > 50 µM | 93 ± 11.7% | – | – | – | –
CCn1c2ccccc2c2cc(Nc3ncccc3C(=O)NCCCn3ccnc3)ccc21 [Compound 4c, N-(3-(1H-imidazol-1-yl)propyl)-2-((9-ethyl-9H-carbazol-3-yl)amino)nicotinamide] | > 50 µM | 27 µM | 93 ± 2.01% | – | – | – | –
CCn1c2ccccc2c2cc(Nc3ncccc3NC(=O)c3cccnc3)ccc21 [Compound 7b, N-(2-((9-ethyl-9H-carbazol-3-yl)amino)pyridin-3-yl)nicotinamide] | 31 µM | 41 µM | 81 ± 11.1% | – | – | – | –
CCn1c2ccccc2c2cc(Nc3ncccc3C(=O)NCCN3CCN(C(=O)OC(C)(C)C)CC3)ccc21 [Compound 4b] | > 50 µM | > 50 µM | 95 ± 9.8% | – | – | – | –
CCn1c2ccccc2c2cc(NC(=O)c3cccnc3NCCCN3CCOCC3)ccc21 [Compound 3d] | 19 µM | > 50 µM | 76 ± 7.87% | 24% | 24% | – | –
CCn1c2ccccc2c2cc(Nc3ncccc3NC(=O)CCN3CCCCC3)ccc21 [Compound 7a, N-[2-(9-Ethyl-9H-carbazol-3-ylamino)-pyridin-3-yl]-3-piperidin-1-yl-propionamide] | 23 µM | 15 µM | 99 ± 4.29% | – | – | – | –
CCn1c2ccccc2c2cc(NC(=O)c3cccnc3N3CCOCC3)ccc21 [Compound 3b, N-(9-ethyl-9H-carbazol-3-yl)-2-morpholinonicotinamide] | > 50 µM | > 50 µM | 68 ± 10.5% | 32% | 32% | no anti-proliferative activity | minor anti-proliferative activity
CCN(CC)CCNC(=O)c1cccnc1Nc1ccc2c(c1)c1ccccc1n2CC [Compound 4e, N-(2-(diethylamino)ethyl)-2-((9-ethyl-9H-carbazol-3-yl)amino)nicotinamide] | 18 µM | 14 µM | 99 ± 4.12% | – | – | – | –
CCn1c2ccccc2c2cc(Nc3ncccc3C(=O)NCCCN3CCOCC3)ccc21 [Compound 4a, 2-(9-ethyl-9H-carbazol-3-ylamino)-N-(3-norpholinopropyl)nicotinamide] | > 50 µM | 28 µM | 99 ± 1.28% | – | – | – | –
CCN(CC)CCCC(C)NC(=O)c1cccnc1Nc1ccc2c(c1)c1ccccc1n2CC (stereo not shown) [Compound 4d, N-(4-Diethylamino-1-methyl-butyl)-2-(9-ethyl-9H-carbazol-3-ylamino)-nicotinamide] | 18 µM | 13 µM | 91 ± 14.1% | – | – | – | –
CCn1c2ccccc2c2cc(Nc3ncccc3NCC(=O)N3CCOCC3)ccc21 [Compound 7c] | > 50 µM | 23 µM | 81 ± 8.27% | – | – | minimal cytotoxicity | –
CCn1c2ccccc2c2cc(Nc3ncccc3C(=O)Nc3cc(OC)c(OC)c(OC)c3)ccc21 [Compound 4f, 2-((9-ethyl-9H-carbazol-3-yl)amino)-N-(3,4,5-trimethoxyphenyl)nicotinamide] | > 50 µM | > 50 µM | 92 ± 8.55% | – | – | – | –

More lines, main results first:

GI50 [1] | GI50 [2] | Structure (SMILES) | activity at 10 µM [3] | inhibition at 10 µM [3] | inhibition at 10 µM ([3]; at 10 μM, 24 h) | anti-proliferative activity / cytotoxicity in words [1] | anti-proliferative activity in words ([1]; MDA-MB-231 at <50 pM as printed)
> 50 µM | > 50 µM | CCn1c2ccccc2c2cc(NC(=O)c3ccccc3C(=O)NCCOC)ccc21 [Compound 14e, N^1-(9-ethyl-9H-carbazol-3-yl)-N^2-(2-methoxyethyl)phthalamide] | 99 ± 2.57% | – | – | – | –
> 50 µM | > 50 µM | CCn1c2ccccc2c2cc(NC(=O)c3nccnc3C(=O)NCCOC)ccc21 [Compound 14d, N^2-(9-ethyl-9H-carbazol-3-yl)-N^3-(2-methoxyethyl)pyrazine-2,3-dicarboxamide] | 100 ± 5.2% | – | – | – | –
> 50 µM | > 50 µM | CCn1c2ccccc2c2cc(NC(=O)c3nccnc3C(=O)NCCN3CCOCC3)ccc21 [Compound 14a, N^2-(9-ethyl-9H-carbazol-3-yl)-N^3-(2morpholinoethyl)pyrazine-2,3-dicarboxamide] | 91 ± 5.23% | – | – | – | –
> 50 µM | > 50 µM | CCn1c2ccccc2c2cc(NC(=O)c3nccnc3C(=O)NCCCN3CCOCC3)ccc21 [Compound 14b, N^2-(9-ethyl-9H-carbazol-3-yl)-N^3-(3-morpholinopropyl)pyrazine-2,3-dicarboxamide] | 94 ± 5.87% | – | – | – | –
> 50 µM | > 50 µM | CCn1c2ccccc2c2cc(NC(=O)C3CCCCC3C(=O)NCCCN3CCOCC3)ccc21 (stereo not shown) [Compound 14h, cyclohexane-1,2-dicarboxylic acid 1-[(9-ethyl-9H-carbazol-3-yl)-amide]-2-[(3-morpholin-4-yl-propyl)-amide]] | 100 ± 0.56% | – | – | – | –
> 50 µM | > 50 µM | CCn1c2ccccc2c2cc(NC(=O)C3CCCCC3C(=O)NCCN3CCOCC3)ccc21 (stereo not shown) [Compound 14g] | 99 ± 1.63% | – | – | – | –
39 µM | 32 µM | CCn1c2ccccc2c2cc(C(=O)Nc3cccnc3NCCCN3CCOCC3)ccc21 [Compound 11a, 9-Ethyl-9H-carbazole-3-carboxylic Acid [2-(3-morpholin-4-yl-propylamino)-pyridin-3-yl]-amide] | 89 ± 10.1% | – | – | – | –
> 50 µM | > 50 µM | CCn1c2ccccc2c2cc(NC(=O)c3nccnc3C(=O)NCCCn3ccnc3)ccc21 [Compound 14c, Pyrazine-2,3-dicarboxylic acid 2-[(9-ethyl-9H-carbazol-3-yl)-amide]-3-[(3-imidazol-1-yl-propyl)-amide]] | 99 ± 4.5% | – | – | – | –
> 50 µM | > 50 µM | CCn1c2ccccc2c2cc(NC(=O)c3ccccc3C(=O)NCCO)ccc21 [Compound 14f, N^1-(9-ethyl-9H-carbazol-3-yl)-N^2-(2-hydroxyethyl)phthalamide] | 98 ± 1.83% | – | – | – | –

From patent publication US11446299B2, “Carbazole EHop-016 derivatives as anticancer and anti-migratory agents” (UNIVERSITY OF PUERTO RICO, priority 2017, dated 2022)
